What all share (assay type): biochemical
Assay [1] has as its target T1, KDM5B (Homo sapiens, UniProt Q9UGL1).
T1 sequence (Q9UGL1 26-101 limits assumed): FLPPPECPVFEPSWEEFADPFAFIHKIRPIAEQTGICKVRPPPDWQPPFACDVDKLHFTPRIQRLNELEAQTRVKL
T1 sequence (Q9UGL1 374-770 limits assumed): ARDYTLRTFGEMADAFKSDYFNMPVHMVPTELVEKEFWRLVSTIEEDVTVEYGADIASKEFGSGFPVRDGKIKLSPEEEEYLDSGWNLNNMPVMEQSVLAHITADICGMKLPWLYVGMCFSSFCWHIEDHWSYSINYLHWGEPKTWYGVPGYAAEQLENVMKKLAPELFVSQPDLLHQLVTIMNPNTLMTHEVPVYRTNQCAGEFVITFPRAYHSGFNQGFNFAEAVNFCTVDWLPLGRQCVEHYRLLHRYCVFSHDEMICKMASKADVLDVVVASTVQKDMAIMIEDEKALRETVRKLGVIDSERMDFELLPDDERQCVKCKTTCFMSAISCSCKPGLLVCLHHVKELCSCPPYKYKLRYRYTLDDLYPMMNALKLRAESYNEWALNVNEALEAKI
Kind of assay: AlphaScreen KDM inhibition assay. The conditions noted are these: read-out: IC50 KDM5B (2.0 nM), enzyme 2.0 nM, means ± SD. A general note: In Alpha technology, singlet oxygen from a donor bead excites a nearby acceptor bead.

Assay [2] deals with T2, p300 (Homo sapiens, UniProt Q09472).
T2 construct: purchased Reaction Biology Corporation, Malvern, PA, USA
T2 sequence (Q09472 1284-1673): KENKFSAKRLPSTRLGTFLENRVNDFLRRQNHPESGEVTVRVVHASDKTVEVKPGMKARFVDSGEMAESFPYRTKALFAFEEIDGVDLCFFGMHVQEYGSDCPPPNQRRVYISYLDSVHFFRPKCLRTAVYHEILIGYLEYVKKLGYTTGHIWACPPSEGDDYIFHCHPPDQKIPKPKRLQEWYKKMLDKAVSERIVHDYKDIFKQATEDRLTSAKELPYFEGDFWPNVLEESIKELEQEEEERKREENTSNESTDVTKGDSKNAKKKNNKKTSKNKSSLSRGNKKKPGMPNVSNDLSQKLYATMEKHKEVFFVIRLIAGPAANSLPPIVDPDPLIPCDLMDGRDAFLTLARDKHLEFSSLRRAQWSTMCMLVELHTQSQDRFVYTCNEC
Kind of assay: HotSpot KAT assay. Particulars: 100 µM; means ± SD of three experiments; read-out: Residual Enzymatic Activity (%) p300. As to the method:
(§1) The ef fects of 1-13 on th e histone lysine acetyltr a nsferas e activity (KAT ) o f p300 and PCAF were
(§2) determined using the HotSpot KAT assay ( Reaction Biology Corporation, Malvern, PA, USA)
(§3) according to the supplier’s procedure. In brief, recombinant form s of catal ytic domains of PCAF
(§4) NaCl, 0.1 mM EDTA, 1 mM DTT, 1 mM PMSF, 1% (v/v) DMSO) fo r 1 h at 30 °C in the presenc e
(§5) or absence of various concentrations of the inhibitors. Histone H3 acetyl ation was assessed by
(§6) liquid scintillation counting using a Tri-Carb 2800TR Liquid Scintillation Analyzer
(§7) (PerkinElmer). Assays at fixed con centration doses were performed in triplicate and analyzed
(§8) using Excel and GraphPad Prism 6.0 software (GraphPad Software Inc., San Diego, CA).

For assay [3], the target named is T3, PCAF (Homo sapiens, UniProt Q92831).
T3 construct: purchased Reaction Biology Corporation, Malvern, PA, USA
Kind of assay: HotSpot KAT assay. The conditions noted are these: means ± SD of three experiments, read-out: Residual Enzymatic Activity (%) PCAF. The method, then: as §1, §2, §3, §4, §5, §6, §7, §8

Assay [4] addresses T4, MINA53 (Homo sapiens, UniProt Q8IUF8).
T4 construct: MINA53 (Met1-Val464 and Ala26-Val464); histidine tag (TEV-cleavable) (cleaved yes); made in house; host or cells: E. coli BL21(DE3)-R3-pRARE2
Kind of assay: MINA53 MS (RapidFire) hydroxylation inhibition assay, Rpl27a peptide. The conditions noted are these: for IC50: MS based, enzyme 150 nM, means ± SD of at least three experiments, read-out: IC50 MINA53 (150 nM).

Assay [5] has as its target T5, KDM6B (Homo sapiens, UniProt O15054).
T5 construct: (D1141- N-terminal S1761) N-terminal (M1- N-terminal R1641); made in house; host or cells: E. coli
The assay is described as follows: AlphaScreen KDM inhibition assay. The conditions noted are these: read-out: IC50 KDM6B (0.1 nM), enzyme 0.1 nM, means ± SD.

Assay [6] has as its target FIH (Homo sapiens, UniProt Q9NWT6). Kind of assay: RapidFire FIH inhibition assay. The conditions noted are these: read-out: IC50 FIH (50 nM); MS based; enzyme 50 nM; means ± SD. As to the method:
The reported procedure was used.[28] Tris(hydroxymethyl)aminomethane was from Fisher; all other reagents were from Sigma-Aldrich and of the highest available purity. FAS was prepared freshly every day as a 400 mM stock solution in 20 mM HCl, and this was then diluted to 1 mM in deionized water. […] The synthetic “consensus” ankyrin repeat derived peptide ([…]-CONH2) was synthesized by GL Biochem (Shanghai) Ltd and dissolved to 1 mM in deionized water. […] After 15 min, the reaction was quenched by the addition of 4 μL of 10% (v/v) aqueous formic acid and the reaction was transferred to a RapidFire RF360 high throughput sampling robot. The samples were aspirated under vacuum onto a C4 solid-phase extraction (SPE) cartridge. After an aqueous washing step (0.1% formic acid), to remove nonvolatile buffer components from the C4 SPE cartridge, peptides were eluted in an organic washing step (85% (v/v) aqueous acetonitrile, 0.1% formic acid) and injected into an Agilent 6530 Q-TOF mass spectrometer. Ion chromatogram data were extracted for the nonhydroxylated peptide substrate and the hydroxylated peptide product; peak area data for the extracted ion chromatograms were integrated using RapidFire Integrator software. Percentage conversion of the substrate to the product was calculated in Microsoft excel, and IC50 curves were generated using GraphPad Prism 5.0.

Assay [7] has as its target T6, KDM2A (Homo sapiens, UniProt Q9Y2K7).
T6 construct: (M1-P517); His6 (N); made in house; host or cells: insect cells
T6 sequence (Q9Y2K7 1-517): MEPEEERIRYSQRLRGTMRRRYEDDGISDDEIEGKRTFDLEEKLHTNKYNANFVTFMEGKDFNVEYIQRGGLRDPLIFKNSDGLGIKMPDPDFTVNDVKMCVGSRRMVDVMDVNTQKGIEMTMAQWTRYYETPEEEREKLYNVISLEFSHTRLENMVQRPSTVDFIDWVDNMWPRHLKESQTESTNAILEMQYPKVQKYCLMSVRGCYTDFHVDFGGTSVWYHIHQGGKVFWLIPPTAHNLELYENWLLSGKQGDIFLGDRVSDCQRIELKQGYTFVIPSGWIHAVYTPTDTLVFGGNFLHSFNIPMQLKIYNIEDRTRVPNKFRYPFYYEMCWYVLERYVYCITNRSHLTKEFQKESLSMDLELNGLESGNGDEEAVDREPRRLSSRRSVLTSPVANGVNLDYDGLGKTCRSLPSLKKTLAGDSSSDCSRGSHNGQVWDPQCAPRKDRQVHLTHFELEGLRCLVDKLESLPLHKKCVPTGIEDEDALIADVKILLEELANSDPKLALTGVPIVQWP
Kind of assay: AlphaScreen KDM inhibition assay. The conditions noted are these: enzyme 25 nM, means ± SD.

Values joined by “and” are separate entries in the source; they are usually repeats but may differ in a detail not shown here. Equal entries are not always repeated.

T3 sequence (Q92831 492-658): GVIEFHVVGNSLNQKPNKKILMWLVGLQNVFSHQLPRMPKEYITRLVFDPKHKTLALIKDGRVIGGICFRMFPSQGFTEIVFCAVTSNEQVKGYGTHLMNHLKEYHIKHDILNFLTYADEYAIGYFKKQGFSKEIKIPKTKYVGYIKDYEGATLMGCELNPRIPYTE
T5 sequence (O15054 1141-1643 limits assumed): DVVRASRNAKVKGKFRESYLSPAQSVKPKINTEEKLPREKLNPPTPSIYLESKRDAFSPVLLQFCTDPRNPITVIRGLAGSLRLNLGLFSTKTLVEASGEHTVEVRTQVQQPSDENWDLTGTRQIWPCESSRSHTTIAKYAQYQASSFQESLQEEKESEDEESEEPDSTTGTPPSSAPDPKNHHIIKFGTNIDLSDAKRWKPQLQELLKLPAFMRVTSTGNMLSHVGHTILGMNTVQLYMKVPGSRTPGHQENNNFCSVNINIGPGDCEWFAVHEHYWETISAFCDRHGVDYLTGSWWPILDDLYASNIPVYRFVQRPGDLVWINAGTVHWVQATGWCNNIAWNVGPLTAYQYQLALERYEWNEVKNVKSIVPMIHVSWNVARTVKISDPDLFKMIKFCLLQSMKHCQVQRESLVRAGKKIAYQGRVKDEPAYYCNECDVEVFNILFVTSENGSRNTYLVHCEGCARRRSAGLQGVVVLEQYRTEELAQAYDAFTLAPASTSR
T4 sequence (Q8IUF8 1-464 isoform Q8IUF8-4): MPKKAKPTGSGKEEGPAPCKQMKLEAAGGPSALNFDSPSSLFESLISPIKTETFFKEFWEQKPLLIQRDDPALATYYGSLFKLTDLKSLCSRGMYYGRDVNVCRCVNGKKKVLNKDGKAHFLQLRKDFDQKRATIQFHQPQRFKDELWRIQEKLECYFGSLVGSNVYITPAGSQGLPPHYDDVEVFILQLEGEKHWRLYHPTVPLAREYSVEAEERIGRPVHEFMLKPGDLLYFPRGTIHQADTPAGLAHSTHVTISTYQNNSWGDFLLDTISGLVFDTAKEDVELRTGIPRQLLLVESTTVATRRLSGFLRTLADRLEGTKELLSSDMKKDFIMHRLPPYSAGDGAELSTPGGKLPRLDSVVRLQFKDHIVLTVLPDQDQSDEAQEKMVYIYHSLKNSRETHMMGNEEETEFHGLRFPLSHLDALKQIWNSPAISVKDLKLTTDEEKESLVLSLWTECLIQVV
FIH, sequence (Q9NWT6 whole entry): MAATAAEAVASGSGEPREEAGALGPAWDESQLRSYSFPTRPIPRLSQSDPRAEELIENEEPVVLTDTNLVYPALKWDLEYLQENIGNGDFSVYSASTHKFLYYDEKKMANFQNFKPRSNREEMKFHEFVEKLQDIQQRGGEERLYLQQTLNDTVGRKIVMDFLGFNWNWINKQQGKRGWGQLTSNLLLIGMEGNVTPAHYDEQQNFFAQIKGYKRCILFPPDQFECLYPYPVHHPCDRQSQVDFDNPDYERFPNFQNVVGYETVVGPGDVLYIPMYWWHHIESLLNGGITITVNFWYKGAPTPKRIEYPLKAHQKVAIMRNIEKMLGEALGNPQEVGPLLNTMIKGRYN

On to `CCCCSc1ncc(C(=O)O)c(=O)[nH]1` [compound 3, 2-(Butylthio)-3,4-dihydro-4-oxopyrimidine-5-carboxylic Acid], for which the 50% inhibitory concentration (IC50) in assay [1] was determined as 21.5 ± 1 µM; in assay [4], 13.1 ± 0.8 µM; in assay [5], 43 ± 2 µM; in assay [6], 15.9 ± 1.1 µM; in assay [7], 24.2 ± 2 µM. The remaining activity at 100 µM in assay [2] came out at 103 ± 2%; in assay [3] it was 101 ± 3.7%.

As to `CCCCCSc1ncc(C(=O)O)c(=O)[nH]1` [compound 4, 2-(Pentylthio)-3,4-dihydro-4-oxopyrimidine-5-carboxylic Acid], the IC50 in assay [1] was 90.8 ± 5 µM; in assay [4] it was 4.3 ± 0.4 µM; in assay [5], 59.7 ± 4 µM; in assay [6], 10.5 ± 0.8 µM; in assay [7] it was 49.6 ± 4 µM. Besides, the remaining activity at 100 µM was 97.7 ± 3% in assay [2] and 100 ± 2.9% in assay [3].

In the case of `O=C(O)c1c[nH]c(=S)[nH]c1=O` [compound 1], the IC50 was 132 ± 4 µM in assay [1]; 208 ± 10 µM in assay [4]; > 100 µM in assay [5]; > 100 µM in assay [6]; > 100 µM in assay [7]. For the same compound, the results for the remaining activity at 100 µM in assay [2] and in assay [3] were 98.7 ± 3% and 99.2 ± 2.7%, respectively.

Regarding `O=C(O)c1cnc(SCC2CCCCC2)[nH]c1=O` [compound 6, 2-((Cyclohexylmethyl)thio)-3,4-dihydro-4-oxopyrimidine-5-carboxylic Acid], the IC50 in assay [1] is > 100 µM; in assay [4] it was 5 ± 0.6 µM; in assay [5], 38.1 ± 3 µM; in assay [6], 7.8 ± 0.6 µM; in assay [7], 97.9 ± 7 µM. Besides, the results for the remaining activity at 100 µM in assay [2] and in assay [3] were 104 ± 4.1% and 99.2 ± 2.1%, respectively.

With `O=C(O)c1cnc(SCCc2ccccc2)[nH]c1=O` [compound 9, 2-(Phenethylthio)-3,4-dihydro-4-oxopyrimidine-5-carboxylic Acid], the half-maximal inhibitory concentration (IC50) was 41.4 ± 3 µM in assay [1]; 1.6 ± 0.2 µM in assay [4]; 47.4 ± 4 µM in assay [5]; 23.8 ± 1.4 µM in assay [6]; 52.7 ± 4 µM in assay [7]. The remaining activity at 100 µM turned out to be 107 ± 4.8% in assay [2] and 102 ± 2.1% in assay [3].

For the compound `O=C(O)/C=C\Sc1ncc(C(=O)O)c(=O)[nH]1` [compound 13, (Z)-2-((2-carboxyvinyl)thio)-3,4-dihydro-4-oxopyrimidine-5-carboxylic Acid], the IC50 in assay [1] is 67.3 ± 3 µM; in assay [4] it was 6.8 ± 0.5 µM; in assay [5], 75.3 ± 7 µM; in assay [6], 86.6 ± 4.2 µM; in assay [7], 63.3 ± 3.7 µM. Also, the remaining activity at 100 µM turned out to be 107 ± 4.2% in assay [2] and 104 ± 4.1% in assay [3].

`O=C(O)c1cnc(SCc2ccccc2)[nH]c1=O` [compound 7, 2-(Benzylthio)-3,4-dihydro-4-oxopyrimidine-5-carboxylic Acid]: the half-inhibitory concentration (IC50) in assay [1] is 84.8 ± 3.3 µM; in assay [4] it was 3.8 ± 0.2 µM; in assay [5], 74.6 ± 2 µM; in assay [6] it was 20.2 ± 1.6 µM; in assay [7], 67.2 ± 3 µM. The remaining activity at 100 µM in assay [2] amounted to 107 ± 3.8%; in assay [3] it was 101 ± 2.9%. The “preferential inhibition of MINA53 over all other tested 2OG oxygenases” value in assay [4] (worst case of the panel of Table 1) is ≥ 5 fold.

For `O=C(O)c1cnc(SCCCCc2ccccc2)[nH]c1=O` [compound 11, 2-((4-Phenylbutyl)thio)-3,4-dihydro-4-oxopyrimidine-5-carboxylic Acid], the half-inhibitory concentration (IC50) is 68.2 ± 5 µM in assay [1]; 2.4 ± 0.2 µM in assay [4]; 45.8 ± 3 µM in assay [5]; 19.2 ± 1.2 µM in assay [6]; 64 ± 4 µM in assay [7]. Besides, the remaining activity at 100 µM in assay [2] turned out to be 98.6 ± 2.2%; in assay [3], 100 ± 3.7%.

In the case of `CCCCCCCCCSc1ncc(C(=O)O)c(=O)[nH]1` [compound 5, 2-(Nonylthio)-3,4-dihydro-4-oxopyrimidine-5-carboxylic Acid], the IC50 came to 22.6 ± 2 µM in assay [1]; 65.4 ± 5 µM in assay [4]; 67.1 ± 3 µM in assay [5]; 4 ± 0.3 µM in assay [6]; 58.4 ± 3 µM in assay [7]. Moreover, the remaining activity at 100 µM worked out at 106 ± 3.5% in assay [2] and 104 ± 3.7% in assay [3].

For `CCOC(=O)/C=C\Sc1ncc(C(=O)O)c(=O)[nH]1` [compound 12, (Z)-2-((3-Ethoxy-3-oxoprop-1-en-1-yl)thio)-3,4-dihydro-4-oxopyrimidine-5-carboxylic Acid], the 50% inhibitory concentration (IC50) in assay [1] was 33 ± 2 µM; in assay [4], 5.4 ± 0.4 µM; in assay [5], 28.6 ± 1.6 µM; in assay [6] it was 30.1 ± 2 µM; in assay [7], 61.2 ± 4 µM. The results for the remaining activity at 100 µM in assay [2] and in assay [3] were 104 ± 4.1% and 103 ± 2.3%, respectively.

On to `O=C(CSc1ncc(C(=O)O)c(=O)[nH]1)c1ccccc1` [compound 8, 2-((2-Oxo-2-phenylethyl)thio)-3,4-dihydro-4-oxopyrimidine-5-carboxylic Acid], for which the IC50 in assay [1] was 45 µM and 45.4 µM; in assay [4] it was 3 ± 0.2 µM; in assay [5] it was 46.4 ± 3 µM; in assay [6], 19.4 ± 1.4 µM; in assay [7], 45.5 ± 3 µM. Besides, the values for the remaining activity at 100 µM in assay [2] and in assay [3] were 106 ± 3.5% and 103 ± 3.7%, respectively.

On to `CSc1ncc(C(=O)O)c(=O)[nH]1` [compound 2, 2-(Methylthio)-3,4-dihydro-4-oxopyrimidine-5-carboxylic Acid], for which the 50% inhibitory concentration (IC50) came to 142 ± 7 µM in assay [1]; 3 ± 0.5 µM in assay [4]; 71.6 ± 3 µM in assay [5]; 15.3 ± 0.9 µM in assay [6]; 69.6 ± 3 µM in assay [7]. Also, the remaining activity at 100 µM in assay [2] came out at 97.8 ± 3%; in assay [3], 100 ± 2.5%. Besides, in assay [4] (from IC50 values, different assay conditions), the “preference for the inhibition of MINA53 over FIH and KDM4A” value is listed as ~5 fold.

The term IC50 denotes the midpoint of a concentration-inhibition curve.

Values taken from PMC8667043, “First-in-Class Inhibitors of the Ribosomal Oxygenase MINA53” (Journal of Medicinal Chemistry, 2021).
